Experimental data: PubChem BioAssay (NCI)
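Method: 48-hour compound exposure of cells in 96-well plates, five concentrations, linear interpolation of endpoints. Definition used: TGI = concentration required for complete inhibition of growth.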 Where a SMILES comes first, the peptide text is derived from it. [ ]: non-standard residue; d: D form. The star is where a group is joined. Cbz = O=C(OCc1ccccc1)*; Aib = CC(C)(N)C(=O)O; OBn = c1ccc(CO*)cc1

What follows are molecules tested on HOP-62 NSCLC (assay: DTP human tumour cell line panel, 48 h).

`COc1cc(Nc2ccc3c(c2)CCC3)nc(OC)n1` and `COc1cc(O)c2c(=O)c(OC)c(-c3ccc(OC)c(O)c3)oc2c1` cannot be ordered by TGI: > 100 µM for the first, > 100 µM for the second.

`CNc1[nH]c(=S)nc2sc3c(c12)CCCC3` and `O=c1onc2n1-c1cc(Cl)ccc1C(=S)N1CSCC21` (stereo not given) cannot be ordered by TGI: > 75 µM for the first, > 100 µM for the second.

`CCOC(=O)c1c2cccccc-2nc1Nc1cccc2c(C)ccnc12` and `O=c1c2c(no[n+]2[O-])c2ccccc2n1-c1ccccc1` cannot be ordered by TGI: > 10 µM for the first, 22.5 µM for the second.

`Cc1c2c(c(C)n1-c1ccccc1)C(=O)N(CCN1CCN(c3cccc(C(F)(F)F)c3)CC1)C2=O` and `CCOC(=O)C(NC(=O)CC)(N1CCN(c2cc3c(cc2F)c(=O)c(C(=O)O)cn3C2CC2)CC1)C(F)(F)F` (stereo not given) cannot be ordered by TGI: > 100 µM for the first, > 100 µM for the second.

`CCOC(=O)CC/C(=N/Nc1ccc(Cl)cc1[N+](=O)[O-])C(=O)OCC` and `CC(NC(=O)C(C)(C)NC(=O)C(CC(=O)OCc1ccccc1)NC(=O)OCc1ccccc1)C(N)=O` (stereo not given) (Cbz-Asp(OBn)-[Aib]-Ala-NH2; configuration not given here) cannot be ordered by TGI: > 100 µM for the first, > 100 µM for the second.

`Clc1sc(Cl)c2c1[C@@H](Cl)C[C@@H]2Br` and `c1ccc(C2=NOC(c3ccccc3)N2C23CC4CC(CC(C4)C2)C3)cc1` (stereo not given) cannot be ordered by TGI: > 100 µM for the first, > 10 µM for the second.

Going from `c1ccc(C(C(=Nc2ccc(Cc3ccc(N=C(C(c4ccccc4)c4ccccc4)N4CC4)cc3)cc2)N2CC2)c2ccccc2)cc1` to `O=[N+]([O-])c1cc2oc(CSc3ccccc3)nc2cc1Cl`, the TGI rises from 33 µM to > 100 µM.

`OCCCc1ccc2c(c1)[C@H](CO)[C@@H](c1ccc(O)cc1)O2` and `CC(C)(CO)CNc1nc(N)nc(Cl)c1/C=N/O` cannot be ordered by TGI: > 100 µM for the first, > 100 µM for the second.

With `O=C(O)C(O)C(O)C(O)C(O)CO` (stereo not given) the TGI was > 100 µM.

These molecules were tested on SK-MEL-2 melanoma (assay: DTP human tumour cell line panel, 48 h).

`COc1cc(Nc2ccc3c(c2)CCC3)nc(OC)n1` and `COc1cc(O)c2c(=O)c(OC)c(-c3ccc(OC)c(O)c3)oc2c1` cannot be ordered by TGI: > 100 µM for the first, > 100 µM for the second.

`CNc1[nH]c(=S)nc2sc3c(c12)CCCC3` and `O=c1onc2n1-c1cc(Cl)ccc1C(=S)N1CSCC21` (stereo not given) cannot be ordered by TGI: > 75 µM for the first, > 100 µM for the second.

`CCOC(=O)c1c2cccccc-2nc1Nc1cccc2c(C)ccnc12` and `O=c1c2c(no[n+]2[O-])c2ccccc2n1-c1ccccc1` cannot be ordered by TGI: > 10 µM for the first, 18.8 µM for the second.

`Cc1c2c(c(C)n1-c1ccccc1)C(=O)N(CCN1CCN(c3cccc(C(F)(F)F)c3)CC1)C2=O` and `CCOC(=O)C(NC(=O)CC)(N1CCN(c2cc3c(cc2F)c(=O)c(C(=O)O)cn3C2CC2)CC1)C(F)(F)F` (stereo not given) cannot be ordered by TGI: > 100 µM for the first, > 100 µM for the second.

`CCOC(=O)CC/C(=N/Nc1ccc(Cl)cc1[N+](=O)[O-])C(=O)OCC` and `CC(NC(=O)C(C)(C)NC(=O)C(CC(=O)OCc1ccccc1)NC(=O)OCc1ccccc1)C(N)=O` (stereo not given) (Cbz-Asp(OBn)-[Aib]-Ala-NH2; configuration not given here) cannot be ordered by TGI: > 100 µM for the first, > 100 µM for the second.

`Clc1sc(Cl)c2c1[C@@H](Cl)C[C@@H]2Br` and `c1ccc(C2=NOC(c3ccccc3)N2C23CC4CC(CC(C4)C2)C3)cc1` (stereo not given) cannot be ordered by TGI: > 100 µM for the first, > 10 µM for the second.

First: c1ccc(C(C(=Nc2ccc(Cc3ccc(N=C(C(c4ccccc4)c4ccccc4)N4CC4)cc3)cc2)N2CC2)c2ccccc2)cc1
Second: O=[N+]([O-])c1cc2oc(CSc3ccccc3)nc2cc1Cl
The TGI of the first is 2.1-fold lower: 24.6 µM for the first, 51.4 µM for the second.

`OCCCc1ccc2c(c1)[C@H](CO)[C@@H](c1ccc(O)cc1)O2` and `CC(C)(CO)CNc1nc(N)nc(Cl)c1/C=N/O` cannot be ordered by TGI: > 100 µM for the first, > 100 µM for the second.

`O=C(O)C(O)C(O)C(O)C(O)CO` (stereo not given) was tested, and the TGI was > 100 µM.

These molecules were tested on HCC-2998 colon (assay: DTP human tumour cell line panel, 48 h).

First: COc1cc(Nc2ccc3c(c2)CCC3)nc(OC)n1
Second: COc1cc(O)c2c(=O)c(OC)c(-c3ccc(OC)c(O)c3)oc2c1
The TGI of the first is lower: 61.6 µM for the first, > 100 µM for the second.

`CNc1[nH]c(=S)nc2sc3c(c12)CCCC3` and `O=c1onc2n1-c1cc(Cl)ccc1C(=S)N1CSCC21` (stereo not given) cannot be ordered by TGI: > 75 µM for the first, > 100 µM for the second.

`CCOC(=O)c1c2cccccc-2nc1Nc1cccc2c(C)ccnc12` and `O=c1c2c(no[n+]2[O-])c2ccccc2n1-c1ccccc1` cannot be ordered by TGI: > 10 µM for the first, 20.6 µM for the second.

`Cc1c2c(c(C)n1-c1ccccc1)C(=O)N(CCN1CCN(c3cccc(C(F)(F)F)c3)CC1)C2=O` and `CCOC(=O)C(NC(=O)CC)(N1CCN(c2cc3c(cc2F)c(=O)c(C(=O)O)cn3C2CC2)CC1)C(F)(F)F` (stereo not given) cannot be ordered by TGI: > 100 µM for the first, > 100 µM for the second.

Compared with `CCOC(=O)CC/C(=N/Nc1ccc(Cl)cc1[N+](=O)[O-])C(=O)OCC`, `CC(NC(=O)C(C)(C)NC(=O)C(CC(=O)OCc1ccccc1)NC(=O)OCc1ccccc1)C(N)=O` (stereo not given) (Cbz-Asp(OBn)-[Aib]-Ala-NH2; configuration not given here) is higher in TGI: 71.5 µM for the first, > 100 µM for the second.

`Clc1sc(Cl)c2c1[C@@H](Cl)C[C@@H]2Br` and `c1ccc(C2=NOC(c3ccccc3)N2C23CC4CC(CC(C4)C2)C3)cc1` (stereo not given) cannot be ordered by TGI: > 100 µM for the first, > 10 µM for the second.

Compared with `c1ccc(C(C(=Nc2ccc(Cc3ccc(N=C(C(c4ccccc4)c4ccccc4)N4CC4)cc3)cc2)N2CC2)c2ccccc2)cc1`, `O=[N+]([O-])c1cc2oc(CSc3ccccc3)nc2cc1Cl` is 2.7-fold higher in TGI: 23.6 µM for the first, 64.5 µM for the second.

Going from `OCCCc1ccc2c(c1)[C@H](CO)[C@@H](c1ccc(O)cc1)O2` to `CC(C)(CO)CNc1nc(N)nc(Cl)c1/C=N/O`, the TGI rises from 37.3 µM to > 100 µM.

With `O=C(O)C(O)C(O)C(O)C(O)CO` (stereo not given) the TGI was > 100 µM.

These molecules were tested on UACC-257 melanoma (assay: DTP human tumour cell line panel, 48 h).

`COc1cc(Nc2ccc3c(c2)CCC3)nc(OC)n1` and `COc1cc(O)c2c(=O)c(OC)c(-c3ccc(OC)c(O)c3)oc2c1` cannot be ordered by TGI: > 100 µM for the first, > 100 µM for the second.

`CNc1[nH]c(=S)nc2sc3c(c12)CCCC3` and `O=c1onc2n1-c1cc(Cl)ccc1C(=S)N1CSCC21` (stereo not given) cannot be ordered by TGI: > 75 µM for the first, > 100 µM for the second.

`CCOC(=O)c1c2cccccc-2nc1Nc1cccc2c(C)ccnc12` and `O=c1c2c(no[n+]2[O-])c2ccccc2n1-c1ccccc1` cannot be ordered by TGI: > 10 µM for the first, 22 µM for the second.

`Cc1c2c(c(C)n1-c1ccccc1)C(=O)N(CCN1CCN(c3cccc(C(F)(F)F)c3)CC1)C2=O` and `CCOC(=O)C(NC(=O)CC)(N1CCN(c2cc3c(cc2F)c(=O)c(C(=O)O)cn3C2CC2)CC1)C(F)(F)F` (stereo not given) cannot be ordered by TGI: > 100 µM for the first, > 100 µM for the second.

`CCOC(=O)CC/C(=N/Nc1ccc(Cl)cc1[N+](=O)[O-])C(=O)OCC` and `CC(NC(=O)C(C)(C)NC(=O)C(CC(=O)OCc1ccccc1)NC(=O)OCc1ccccc1)C(N)=O` (stereo not given) (Cbz-Asp(OBn)-[Aib]-Ala-NH2; configuration not given here) cannot be ordered by TGI: > 100 µM for the first, > 100 µM for the second.

`Clc1sc(Cl)c2c1[C@@H](Cl)C[C@@H]2Br` and `c1ccc(C2=NOC(c3ccccc3)N2C23CC4CC(CC(C4)C2)C3)cc1` (stereo not given) cannot be ordered by TGI: > 100 µM for the first, > 10 µM for the second.

Compared with `c1ccc(C(C(=Nc2ccc(Cc3ccc(N=C(C(c4ccccc4)c4ccccc4)N4CC4)cc3)cc2)N2CC2)c2ccccc2)cc1`, `O=[N+]([O-])c1cc2oc(CSc3ccccc3)nc2cc1Cl` is 3.2-fold higher in TGI: 25.6 µM for the first, 82.2 µM for the second.

`OCCCc1ccc2c(c1)[C@H](CO)[C@@H](c1ccc(O)cc1)O2` and `CC(C)(CO)CNc1nc(N)nc(Cl)c1/C=N/O` cannot be ordered by TGI: > 100 µM for the first, > 100 µM for the second.

`O=C(O)C(O)C(O)C(O)C(O)CO` (stereo not given) was tested, and the TGI was > 100 µM.

What follows are molecules tested on MALME-3M melanoma (assay: DTP human tumour cell line panel, 48 h).

`COc1cc(Nc2ccc3c(c2)CCC3)nc(OC)n1` and `COc1cc(O)c2c(=O)c(OC)c(-c3ccc(OC)c(O)c3)oc2c1` cannot be ordered by TGI: > 100 µM for the first, > 100 µM for the second.

`CNc1[nH]c(=S)nc2sc3c(c12)CCCC3` and `O=c1onc2n1-c1cc(Cl)ccc1C(=S)N1CSCC21` (stereo not given) cannot be ordered by TGI: > 75 µM for the first, > 100 µM for the second.

`CCOC(=O)c1c2cccccc-2nc1Nc1cccc2c(C)ccnc12` and `O=c1c2c(no[n+]2[O-])c2ccccc2n1-c1ccccc1` cannot be ordered by TGI: > 10 µM for the first, 14.5 µM for the second.

`Cc1c2c(c(C)n1-c1ccccc1)C(=O)N(CCN1CCN(c3cccc(C(F)(F)F)c3)CC1)C2=O` and `CCOC(=O)C(NC(=O)CC)(N1CCN(c2cc3c(cc2F)c(=O)c(C(=O)O)cn3C2CC2)CC1)C(F)(F)F` (stereo not given) cannot be ordered by TGI: > 100 µM for the first, > 100 µM for the second.

`CCOC(=O)CC/C(=N/Nc1ccc(Cl)cc1[N+](=O)[O-])C(=O)OCC` and `CC(NC(=O)C(C)(C)NC(=O)C(CC(=O)OCc1ccccc1)NC(=O)OCc1ccccc1)C(N)=O` (stereo not given) (Cbz-Asp(OBn)-[Aib]-Ala-NH2; configuration not given here) cannot be ordered by TGI: > 100 µM for the first, > 100 µM for the second.

`Clc1sc(Cl)c2c1[C@@H](Cl)C[C@@H]2Br` and `c1ccc(C2=NOC(c3ccccc3)N2C23CC4CC(CC(C4)C2)C3)cc1` (stereo not given) cannot be ordered by TGI: > 100 µM for the first, > 10 µM for the second.

Going from `c1ccc(C(C(=Nc2ccc(Cc3ccc(N=C(C(c4ccccc4)c4ccccc4)N4CC4)cc3)cc2)N2CC2)c2ccccc2)cc1` to `O=[N+]([O-])c1cc2oc(CSc3ccccc3)nc2cc1Cl`, the TGI rises from 38.8 µM to > 100 µM.

Going from `OCCCc1ccc2c(c1)[C@H](CO)[C@@H](c1ccc(O)cc1)O2` to `CC(C)(CO)CNc1nc(N)nc(Cl)c1/C=N/O`, the TGI rises from 29.2 µM to > 100 µM.

In the case of `O=C(O)C(O)C(O)C(O)C(O)CO` (stereo not given), the TGI is reported as > 100 µM.
